Patent publication US12303497B2, “Anti-androgens for the treatment of metastatic castration-sensitive prostate cancer” (priority 2019, dated 2025)

What was measured:
male rats = experiment: Repeat-dose toxicity study in male rats (up to 26 weeks); format: in vivo, rat
OATP1B1 = OATP1B1 (Homo sapiens, UniProt Q9Y6L6); experiment: In vitro transporter substrate study
rat bone marrow = experiment: In vivo rat bone marrow micronucleus assay
OATP1B3 = OATP1B3 (Homo sapiens, UniProt Q9NPD5); experiment: In vitro transporter substrate study
P-gp = P-gp (Homo sapiens, UniProt P08183); experiment: In vitro transporter substrate study
patients with CRPC = experiment: Dedicated QT study (QTc interval); format: in vivo, human
Text: The maximum mean QTcF change from baseline was 12.4 ms (2-sided 90% upper CI. 16.0 ms).

[1] = system: multidrug and toxin extrusions (MATEs); experiment: In vitro transporter inhibition; format: in vitro ADME
CYP2C8 = target: T1, CYP2C8 (Homo sapiens, UniProt P10632); experiment: Co-administration with gemfibrozil (strong CYP2C8 inhibitor); format: in vivo; parameters: endogenous in cells; host or cells: human subjects, in vivo; settings: ERLEADA 240 mg single dose with gemfibrozil
T1 sequence (P10632 1-490): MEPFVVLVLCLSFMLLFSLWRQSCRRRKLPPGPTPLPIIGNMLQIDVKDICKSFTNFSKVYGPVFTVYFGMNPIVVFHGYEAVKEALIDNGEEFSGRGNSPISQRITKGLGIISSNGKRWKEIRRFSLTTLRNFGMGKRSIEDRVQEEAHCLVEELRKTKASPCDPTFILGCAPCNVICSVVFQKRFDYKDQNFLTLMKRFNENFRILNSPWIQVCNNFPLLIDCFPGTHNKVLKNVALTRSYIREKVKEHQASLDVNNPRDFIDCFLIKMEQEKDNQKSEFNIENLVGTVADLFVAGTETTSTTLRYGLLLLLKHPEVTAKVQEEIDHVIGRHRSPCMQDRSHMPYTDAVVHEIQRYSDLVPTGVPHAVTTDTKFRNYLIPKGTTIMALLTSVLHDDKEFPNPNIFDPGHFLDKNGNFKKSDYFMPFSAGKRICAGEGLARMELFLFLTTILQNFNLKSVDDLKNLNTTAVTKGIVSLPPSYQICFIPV

[2] = system: patients with metastatic castration-sensitive prostate cancer (mCSPC); experiment: Phase 3 study (TITAN) of apalutamide plus ADT versus placebo plus ADT: efficacy; format: in vivo, human
Procedure: The data presented herein as associated with this study reflects the state of this study at the time of this filing. The study was conducted at 260 sites in 23 countries. Review boards at all participating institutions approved the study, which was conducted in accordance with current International Conference on Harmonization guidelines for Good Clinical Practice and according to Declaration of Helsinki principles. All patients provided written informed consent. An independent data-monitoring committee was commissioned by the sponsor to monitor safety and efficacy before unblinding and make study conduct recommendations. Data were transcribed by personnel at each site from source documents into sponsor-prepared electronic case report forms. Blinding of investigators, patients, study site personnel, and sponsor study team to randomization codes was maintained until study completion, independent data-monitoring committee recommendation, or individual patient medical need.
Patients were stratified by Gleason score at diagnosis (≤7 vs. >7), region (North America and European Union vs. all other countries), and prior treatment with docetaxel (yes vs. no). A Screening Phase of up to 28 days before randomization established study eligibility. Subjects will receive/received treatment in 28-day cycles during the Treatment Phase until disease progression or the occurrence of unacceptable treatment-related toxicity or the sponsor terminates the study. […] During the Follow-up Phase, data collection (every 4 months) will include survival, additional data on secondary endpoints, date and type of disease progression (radiographic, PSA, clinical or a combination) on the first subsequent therapy for prostate cancer, and subsequent therapy for prostate cancer. Data collection in follow-up will continue until the subject dies, withdraws consent, is lost to follow-up or the study is terminated by the sponsor. The Brief Pain Inventory Short Form (BPI SF), Brief Fatigue Inventory (BFI), and EQ-5D-5L patient-report outcome (PRO) measures will also continue in the Follow-up Phase up to 12 months after treatment discontinuation.
Eligible patients were required to have documented adenocarcinoma of the prostate and distant metastatic disease documented by ≥1 lesion on bone scan, with or without visceral or lymph node involvement. […] Patients were castration sensitive (i.e., patients who are not receiving ADT at the time of progression). Previous treatment for prostate cancer was limited to prior docetaxel (maximum six cycles, no evidence of progression during treatment or before randomization), ADT for ≤6 months for metastatic castration-sensitive prostate cancer or ≤3 years total duration for localized prostate cancer, one course of radiation or surgical therapy for symptoms associated with metastatic disease, and other localized treatments (e.g., radiation therapy, prostatectomy) completed ≥1 year before randomization. Patients who had received a gonadotropin-releasing hormone agonist ≤28 days before randomization were required to take a first-generation antiandrogen (i.e., biclutamide, flutamide, or nilutamide) for ≥14 days before randomization. Antiandrogen must have been discontinued before randomization. Patients with severe angina, myocardial infarction, congestive heart failure, arterial/venous thromboembolic events, history of or predisposition for seizure, or recent ventricular arrhythmias were excluded.

CYP3A4 = CYP3A4 (Homo sapiens, UniProt P08684); experiment: Co-administration with itraconazole (strong CYP3A4 inhibitor); format: in vivo; parameters: endogenous in cells; host or cells: human subjects, in vivo; settings: ERLEADA 240 mg single dose with itraconazole
[3] = system: mouse xenograft models of prostate cancer; experiment: Mouse xenograft models of prostate cancer; format: in vivo; settings: decreased tumor cell proliferation and increased apoptosis
[4] = Effect of food on apalutamide pharmacokinetics (healthy subjects); format: in vivo, human
Procedure: Median time to reach tmax was delayed approximately 2 hours with food.

[5] = system: in vitro chromosome aberration assay; experiment: In vitro chromosome aberration assay; format: cell-based

CYP3A4, sequence (P08684 whole entry): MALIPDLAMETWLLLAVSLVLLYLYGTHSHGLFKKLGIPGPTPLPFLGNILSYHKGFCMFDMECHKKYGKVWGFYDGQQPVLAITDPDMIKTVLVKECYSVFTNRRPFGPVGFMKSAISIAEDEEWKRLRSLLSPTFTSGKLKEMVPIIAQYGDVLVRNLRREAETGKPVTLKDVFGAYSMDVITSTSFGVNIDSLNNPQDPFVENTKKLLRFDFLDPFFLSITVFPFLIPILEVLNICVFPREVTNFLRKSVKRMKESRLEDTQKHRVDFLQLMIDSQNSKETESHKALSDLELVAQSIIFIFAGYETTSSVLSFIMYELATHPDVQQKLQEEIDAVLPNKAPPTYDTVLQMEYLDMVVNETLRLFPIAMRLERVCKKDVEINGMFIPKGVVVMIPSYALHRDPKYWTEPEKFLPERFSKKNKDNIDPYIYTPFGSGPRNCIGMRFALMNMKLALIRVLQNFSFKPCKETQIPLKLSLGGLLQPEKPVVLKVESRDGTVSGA
P-gp, sequence (P08183 whole entry): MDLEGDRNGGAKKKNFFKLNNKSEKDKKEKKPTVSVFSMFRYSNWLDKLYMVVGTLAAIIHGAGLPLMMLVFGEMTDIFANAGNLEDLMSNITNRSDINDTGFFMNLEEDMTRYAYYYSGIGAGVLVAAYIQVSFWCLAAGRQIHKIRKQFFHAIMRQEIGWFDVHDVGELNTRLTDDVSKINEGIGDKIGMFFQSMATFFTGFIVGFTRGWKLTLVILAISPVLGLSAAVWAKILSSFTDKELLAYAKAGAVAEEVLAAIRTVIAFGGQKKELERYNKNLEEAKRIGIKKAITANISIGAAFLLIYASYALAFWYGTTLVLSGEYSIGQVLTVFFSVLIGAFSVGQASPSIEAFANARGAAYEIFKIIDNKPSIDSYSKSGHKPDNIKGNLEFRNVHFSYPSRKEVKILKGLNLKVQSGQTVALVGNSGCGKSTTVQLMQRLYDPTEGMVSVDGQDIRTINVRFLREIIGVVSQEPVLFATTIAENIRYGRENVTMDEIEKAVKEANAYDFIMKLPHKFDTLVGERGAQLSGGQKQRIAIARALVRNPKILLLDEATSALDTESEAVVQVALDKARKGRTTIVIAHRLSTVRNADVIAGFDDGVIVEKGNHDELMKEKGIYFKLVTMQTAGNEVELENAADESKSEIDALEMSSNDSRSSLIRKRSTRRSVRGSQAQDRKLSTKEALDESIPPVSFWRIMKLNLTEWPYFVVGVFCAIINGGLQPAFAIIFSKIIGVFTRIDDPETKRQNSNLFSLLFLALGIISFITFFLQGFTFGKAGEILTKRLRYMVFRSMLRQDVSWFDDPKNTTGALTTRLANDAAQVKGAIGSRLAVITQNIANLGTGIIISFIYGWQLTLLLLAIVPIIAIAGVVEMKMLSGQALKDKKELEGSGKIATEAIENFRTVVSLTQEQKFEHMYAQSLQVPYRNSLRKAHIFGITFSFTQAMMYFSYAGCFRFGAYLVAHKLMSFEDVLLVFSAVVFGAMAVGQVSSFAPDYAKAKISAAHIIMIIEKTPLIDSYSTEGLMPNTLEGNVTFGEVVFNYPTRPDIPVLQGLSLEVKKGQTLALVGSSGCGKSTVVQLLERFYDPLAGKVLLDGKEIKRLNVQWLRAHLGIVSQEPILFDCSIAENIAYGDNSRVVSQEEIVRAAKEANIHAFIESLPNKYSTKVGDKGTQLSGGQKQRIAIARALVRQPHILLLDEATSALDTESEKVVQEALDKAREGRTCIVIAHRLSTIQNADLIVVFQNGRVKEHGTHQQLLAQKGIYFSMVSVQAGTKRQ
OATP1B3, sequence (Q9NPD5 whole entry): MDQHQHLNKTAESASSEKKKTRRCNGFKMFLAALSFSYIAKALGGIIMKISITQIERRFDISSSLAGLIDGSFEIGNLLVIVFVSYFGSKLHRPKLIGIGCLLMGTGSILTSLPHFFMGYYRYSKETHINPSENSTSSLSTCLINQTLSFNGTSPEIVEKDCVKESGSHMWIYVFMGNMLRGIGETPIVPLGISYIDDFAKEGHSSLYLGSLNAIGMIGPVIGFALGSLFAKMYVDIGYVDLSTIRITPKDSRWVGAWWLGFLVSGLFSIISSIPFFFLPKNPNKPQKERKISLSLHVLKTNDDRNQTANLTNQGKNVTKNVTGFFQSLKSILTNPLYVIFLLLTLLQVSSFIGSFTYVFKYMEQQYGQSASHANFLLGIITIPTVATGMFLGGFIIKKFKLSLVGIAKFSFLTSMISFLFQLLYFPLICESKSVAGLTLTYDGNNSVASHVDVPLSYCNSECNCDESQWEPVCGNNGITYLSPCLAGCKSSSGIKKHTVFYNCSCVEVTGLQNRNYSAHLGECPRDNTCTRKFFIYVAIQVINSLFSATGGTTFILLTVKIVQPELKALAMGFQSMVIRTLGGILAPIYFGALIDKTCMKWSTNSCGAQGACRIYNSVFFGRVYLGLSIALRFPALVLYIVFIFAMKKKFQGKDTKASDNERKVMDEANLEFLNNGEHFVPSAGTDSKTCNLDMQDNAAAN
OATP1B1, sequence (Q9Y6L6 whole entry): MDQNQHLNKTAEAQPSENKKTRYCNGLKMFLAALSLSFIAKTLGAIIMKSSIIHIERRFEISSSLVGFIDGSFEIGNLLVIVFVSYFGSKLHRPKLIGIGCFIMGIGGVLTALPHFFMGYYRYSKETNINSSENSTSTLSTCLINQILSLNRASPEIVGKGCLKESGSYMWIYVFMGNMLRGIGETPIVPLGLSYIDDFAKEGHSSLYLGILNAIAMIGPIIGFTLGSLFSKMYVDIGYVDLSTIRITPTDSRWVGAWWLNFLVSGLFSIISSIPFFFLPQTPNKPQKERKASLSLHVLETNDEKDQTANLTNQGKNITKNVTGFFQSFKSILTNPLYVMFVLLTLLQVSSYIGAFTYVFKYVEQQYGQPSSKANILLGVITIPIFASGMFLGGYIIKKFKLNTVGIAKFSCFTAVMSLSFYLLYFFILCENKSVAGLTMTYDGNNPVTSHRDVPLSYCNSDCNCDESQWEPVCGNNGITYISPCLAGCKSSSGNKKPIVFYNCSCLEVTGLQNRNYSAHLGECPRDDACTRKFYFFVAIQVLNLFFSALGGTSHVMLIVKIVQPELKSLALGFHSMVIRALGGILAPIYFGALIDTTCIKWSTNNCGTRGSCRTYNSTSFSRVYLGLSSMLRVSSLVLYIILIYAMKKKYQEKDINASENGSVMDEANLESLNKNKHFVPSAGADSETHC

## CNC(=O)c1ccc(N2C(=S)N(c3cnc(C#N)c(C(F)(F)F)c3)C(=O)C23CCC3)cc1F [Apalutamide, 4-[7-(6-cyano-5-trifluoromethylpyridin-3-yl)-8-oxo-6-thioxo-5,7-diazaspiro[3.4]oct-5-yl]-2-fluoro-N-methylbenzamide]
Male rats
  Dose at which atrophy of prostate gland and seminal vesicles, aspermia/hypospermia, tubular degeneration and/or interstitial cell hyperplasia or hypertrophy were observed: ≥ 25 mg/kg/day
OATP1B1
  Substrate for OATP1B1: not
Rat bone marrow
  Genotoxicity: not genotoxic
OATP1B3
  Substrate for OATP1B3: not
P-gp
  Substrate for P-gp: substrates
Patients with CRPC; apalutamide 240 mg once daily, 45 patients with CRPC, 2-sided 90% upper CI 16.0 ms
  Maximum mean QTcF change from baseline: 12.4 ms
Patients with CRPC; in vivo
  Exposure-QT analysis: concentration-dependent increase in QTcF
[1]
  Inhibition of MATEs: inhibit
CYP2C8
  Apalutamide AUC increase: 68%
  Apalutamide Cmax decrease: 21%
[2]; 99 patients
  Treatment discontinuations as the result of progressive disease: 19%
[2]; 525 patients randomized
  Deaths at cutoff for the first interim analysis: 83
  Radiographic progression events: 134
[2]; final analysis for rPFS
  Median radiographic progression-free survival: not reached
[2]; in vivo
  Overall survival, 24-month event-free rate: 82%
  Patients in whom PSA reached undetectable levels (PSA<0.2 ng per ml): 68%
  Radiographic progression-free survival, 24-month event-free rate: 68%
[2]; mixed-effect repeated measures model
  Change in FACT-P from baseline (health-related quality of life): maintained health-related quality of life and no between-group difference
[2]; n = 525
  Patients who discontinued because of disease progression: 99 (18.9) no. (%)
[2]; vs placebo + ADT
  Reduction in risk of death: 33%
  Reduction in risk of radiographic progression or death: 52%
CYP3A4
  Apalutamide AUC change: similar
  Apalutamide Cmax decrease: 22%
[3]
  Effect on tumors: decreased tumor volume
[4]
  Change in Cmax and AUC with a high-fat meal vs fasting: no clinically relevant changes
[5]
  Genotoxicity: not genotoxic
